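In this assay, cells in 96-well plates receive the compound at five concentrations for 48 hours. Endpoints are linearly interpolated between the surrounding concentrations. GI50 = concentration required for 50% inhibition of growth.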 The source made the active and inactive calls. No stated cut-off is given here; in the data, active = GI50 up to about 1.1 µM and inactive = higher.
Experiments:
Assay in all cases: inhibition of tumour cell growth, NCI panel, 48 h
EKVX = tested on: EKVX
KM12 = tested on: KM12
K562 = tested on: K562
SF-268 = tested on: SF-268
U-251 = tested on: U-251
UACC-257 = tested on: UACC-257
SK-MEL-2 = tested on: SK-MEL-2
SW-620 = tested on: SW-620
OVCAR-3 = tested on: OVCAR-3
BT-549 = tested on: BT-549
MCF7 = tested on: MCF7
NCI-H23 = tested on: NCI-H23
COLO 205 = tested on: COLO 205
HCC 2998 = tested on: HCC 2998
CCRF-CEM = tested on: CCRF-CEM
786-0 = tested on: 786-0
SR = tested on: SR
SK-MEL-5 = tested on: SK-MEL-5
HT-29 = tested on: HT-29
SK-MEL-28 = tested on: SK-MEL-28

Measured: GI50

CCN(CC)CCC(=O)/C=C/c1ccc(Cl)c(Cl)c1
inactive: EKVX > 10 µM | KM12 2.36 µM | K562 3.68 µM | SF-268 3.05 µM | U-251 4.76 µM | UACC-257 > 10 µM | SK-MEL-2 8.55 µM | SW-620 2.55 µM | OVCAR-3 8.61 µM | BT-549 4.49 µM | MCF7 3.36 µM | NCI-H23 > 10 µM | COLO 205 3.85 µM | HCC 2998 3.36 µM | CCRF-CEM 2.45 µM | 786-0 3.31 µM | SR 2.83 µM

COC1CC(OC2C(C)OC(OC3C(C)OC(OC4C(O)CC(O[C@H]5CC[C@@]6(C)C(=CC[C@]7(O)[C@@H]6C[C@@H](OC(=O)/C=C/c6ccccc6)[C@@]6(C)[C@]7(O)CC[C@@]6(O)C(C)=O)C5)OC4C)CC3OC)CC2OC)OC(C)C1O (some centres not stated)
inactive: EKVX > 6.25 µM | KM12 > 6.25 µM | SK-MEL-5 > 6.25 µM | K562 > 6.25 µM | SF-268 > 6.25 µM | U-251 > 6.25 µM | UACC-257 > 6.25 µM | SK-MEL-2 > 6.25 µM | SW-620 > 6.25 µM | OVCAR-3 > 6.25 µM | BT-549 > 6.25 µM | HT-29 > 6.25 µM | MCF7 > 6.25 µM | NCI-H23 > 6.25 µM | COLO 205 > 6.25 µM | HCC 2998 > 6.25 µM | CCRF-CEM > 6.25 µM | 786-0 > 6.25 µM | SR > 6.25 µM

CCOC(=O)c1c(N)n(-c2ccccc2)c(=S)n(-c2ccccc2)c1=O
inactive: SK-MEL-28 > 100 µM | KM12 > 100 µM | SK-MEL-5 > 100 µM | K562 > 100 µM | SF-268 > 100 µM | U-251 > 100 µM | UACC-257 > 100 µM | SK-MEL-2 > 100 µM | SW-620 > 100 µM | OVCAR-3 > 100 µM | BT-549 > 100 µM | HT-29 > 100 µM | MCF7 > 100 µM | NCI-H23 > 100 µM | COLO 205 > 100 µM | HCC 2998 > 100 µM | CCRF-CEM > 100 µM | 786-0 > 100 µM | SR > 100 µM

CC(C)(C)OC(=O)Cn1ncn(NC(=O)Cc2ccccc2)c1=O
inactive: SK-MEL-28 > 10 µM | EKVX > 10 µM | KM12 > 10 µM | SK-MEL-5 > 10 µM | K562 > 10 µM | SF-268 > 10 µM | U-251 > 10 µM | UACC-257 > 10 µM | SW-620 > 10 µM | OVCAR-3 > 10 µM | BT-549 > 10 µM | HT-29 > 10 µM | MCF7 > 10 µM | NCI-H23 > 10 µM | COLO 205 > 10 µM | HCC 2998 > 10 µM | CCRF-CEM > 10 µM | 786-0 > 10 µM | SR > 10 µM

Cc1cc(C)nc(NC(=S)Nc2ccc(Cl)cc2)c1
inactive: SK-MEL-28 > 100 µM | EKVX 17.4 µM | KM12 53.6 µM | SK-MEL-5 > 100 µM | K562 > 100 µM | SF-268 21.3 µM | U-251 35.9 µM | UACC-257 > 100 µM | SK-MEL-2 > 100 µM | SW-620 > 100 µM | OVCAR-3 > 100 µM | BT-549 > 100 µM | HT-29 > 100 µM | MCF7 > 100 µM | COLO 205 > 100 µM | CCRF-CEM > 100 µM | 786-0 22.5 µM | SR > 100 µM

CC(CC(=O)N1C2CC3CCC2(CS1(=O)=O)C3(C)C)[Si](C)(C)C (configuration not stated)
inactive: SK-MEL-28 > 100 µM | EKVX > 100 µM | KM12 > 100 µM | SK-MEL-5 > 100 µM | K562 > 100 µM | SF-268 > 100 µM | U-251 > 100 µM | UACC-257 > 100 µM | SW-620 > 100 µM | OVCAR-3 > 100 µM | BT-549 > 100 µM | HT-29 > 100 µM | MCF7 > 100 µM | NCI-H23 > 100 µM | COLO 205 > 100 µM | HCC 2998 > 100 µM | CCRF-CEM > 100 µM | 786-0 > 100 µM | SR > 100 µM

O=C1CC(=O)NC(NNS(=O)(=O)c2ccc(Cl)cc2)=N1
inactive: SK-MEL-28 > 100 µM | KM12 > 100 µM | SK-MEL-5 > 100 µM | K562 > 100 µM | SF-268 > 100 µM | U-251 > 100 µM | UACC-257 > 100 µM | SK-MEL-2 > 100 µM | SW-620 > 100 µM | OVCAR-3 > 100 µM | BT-549 > 100 µM | HT-29 > 100 µM | MCF7 > 100 µM | NCI-H23 > 100 µM | COLO 205 > 100 µM | HCC 2998 > 100 µM | CCRF-CEM 63.1 µM | 786-0 > 100 µM | SR > 100 µM

CC(=O)C1(C)CC(C#N)(C#N)C(C#N)=C1N (configuration not stated)
inactive: EKVX 26.5 µM | KM12 > 100 µM | SK-MEL-5 > 100 µM | K562 > 100 µM | SF-268 > 100 µM | U-251 > 100 µM | UACC-257 > 100 µM | SK-MEL-2 > 100 µM | SW-620 > 100 µM | OVCAR-3 > 100 µM | BT-549 > 100 µM | HT-29 > 100 µM | MCF7 > 100 µM | NCI-H23 > 100 µM | COLO 205 > 100 µM | HCC 2998 > 100 µM | CCRF-CEM > 100 µM | 786-0 > 100 µM | SR 56.2 µM

O=C1OC(=O)C2CCCC3CCCC1C32 (configuration not stated)
inactive: SK-MEL-28 > 100 µM | EKVX > 100 µM | KM12 > 100 µM | SK-MEL-5 > 100 µM | K562 > 100 µM | SF-268 > 100 µM | U-251 > 100 µM | UACC-257 > 100 µM | SK-MEL-2 > 100 µM | SW-620 > 100 µM | OVCAR-3 > 100 µM | BT-549 > 100 µM | HT-29 > 100 µM | MCF7 > 100 µM | NCI-H23 > 100 µM | COLO 205 > 100 µM | HCC 2998 > 100 µM | CCRF-CEM > 100 µM | 786-0 > 100 µM

CCOc1cc(NC(C)=O)ccc1C(=O)NN1C(=O)/C(=C/c2cc(OC)c(OC)c(OC)c2)N=C1c1ccccc1
inactive: SK-MEL-28 > 100 µM | EKVX > 100 µM | KM12 37.2 µM | SK-MEL-5 65.8 µM | K562 > 100 µM | SF-268 86.9 µM | UACC-257 > 100 µM | SW-620 > 100 µM | OVCAR-3 > 100 µM | BT-549 16.3 µM | HT-29 > 100 µM | MCF7 > 100 µM | NCI-H23 > 100 µM | COLO 205 > 100 µM | HCC 2998 > 100 µM | CCRF-CEM > 100 µM | 786-0 > 100 µM | SR > 100 µM

C=CCCCC1SC2=C(CC)CCCN2C1=O (configuration not stated)
inactive: SK-MEL-28 76.6 µM | EKVX 78.7 µM | KM12 86.7 µM | SK-MEL-5 36.1 µM | K562 > 100 µM | SF-268 74.6 µM | U-251 85.1 µM | UACC-257 27.6 µM | SK-MEL-2 > 100 µM | SW-620 77.4 µM | OVCAR-3 78.7 µM | BT-549 46.3 µM | HT-29 58.3 µM | MCF7 42.7 µM | NCI-H23 49.1 µM | COLO 205 54 µM | 786-0 > 100 µM | SR 57.7 µM

CC(=O)Nc1cc(Nc2cc(O)nc(O)n2)ccc1C
inactive: SK-MEL-28 > 100 µM | EKVX > 100 µM | KM12 > 100 µM | SK-MEL-5 > 100 µM | K562 > 100 µM | SF-268 > 100 µM | U-251 > 100 µM | UACC-257 > 100 µM | SW-620 > 100 µM | OVCAR-3 > 100 µM | BT-549 > 100 µM | MCF7 > 100 µM | COLO 205 > 100 µM | HCC 2998 > 100 µM | CCRF-CEM > 100 µM | 786-0 > 100 µM | SR > 100 µM

NCCCCC(NC(=O)C(N)Cc1ccc(O)cn1)C(=O)O (configuration not stated)
inactive: SK-MEL-28 > 100 µM | EKVX > 100 µM | KM12 > 100 µM | SK-MEL-5 > 100 µM | K562 > 100 µM | SF-268 > 100 µM | U-251 > 100 µM | UACC-257 > 100 µM | SW-620 > 100 µM | OVCAR-3 > 100 µM | BT-549 > 100 µM | HT-29 > 100 µM | MCF7 > 100 µM | NCI-H23 > 100 µM | COLO 205 > 100 µM | HCC 2998 > 100 µM | CCRF-CEM > 100 µM | 786-0 > 100 µM | SR > 100 µM

CC1=C(c2ccccc2)NC(=S)C(C)C(c2ccccc2)=N1 (configuration not stated)
inactive: SK-MEL-28 38.9 µM | EKVX 42.3 µM | KM12 21.2 µM | SK-MEL-5 24.9 µM | K562 10.6 µM | SF-268 27.5 µM | U-251 55.6 µM | UACC-257 28.8 µM | SW-620 44.1 µM | BT-549 23.7 µM | HT-29 32.4 µM | MCF7 27 µM | NCI-H23 9.91 µM | COLO 205 30.9 µM | HCC 2998 34.3 µM | CCRF-CEM 12.1 µM | 786-0 74.5 µM | SR 22 µM

Nc1nc(N)c(C2=CCNCC2)c(=O)[nH]1
inactive: SK-MEL-28 > 100 µM | EKVX > 100 µM | KM12 > 100 µM | SK-MEL-5 > 100 µM | K562 > 100 µM | SF-268 > 100 µM | U-251 > 100 µM | UACC-257 > 100 µM | SK-MEL-2 > 100 µM | SW-620 > 100 µM | OVCAR-3 > 100 µM | BT-549 > 100 µM | HT-29 > 100 µM | MCF7 > 100 µM | NCI-H23 > 100 µM | COLO 205 > 100 µM | CCRF-CEM > 100 µM | 786-0 > 100 µM | SR > 100 µM

From ChEMBL document CHEMBL1201862, “PubChem BioAssay data set” (2004)
